pIC50: −log10 of the molar value.
Test system: 843782-103-R-J1-PDC complex spheroid viability
Assay: Anticancer human tumor 843782-103-R-J1-PDC patient-derived lung adenocarcinoma cell line growth inhibition [RAS]
Conditions: for pIC50: curve of first compound; for viability, T/C: stronger effect = lower value
How it was run: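 Multi-cell-type spheroids: tumor cells plus HUVEC endothelial cells and mesenchymal stem cells. RAS-pathway inhibitors were combined with targeted agents, each dosed in half-log steps down from clinical Cmax, or from 10 microM when Cmax was unknown.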
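Further: viability read after seven days of compound exposure.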

For CC(C)n1nc(-c2ccc3oc(N)nc3c2)c2c(N)ncnc21 + CCn1c(-c2cccnc2C(C)OC)c2c3cc(ccc31)N1CCOC(CC(NC(=O)C(C(C)C)N(C)C(=O)C3(F)CCN(C(=O)C#CC(C)(C)N(C)C)CC3)C(=O)N3CCCC(N3)C(=O)OCC(C)(C)C2)C1, the pIC50 (second compound 0.000949 µM) was 8.18, the pIC50 (second compound 0.003 µM) was 8.28 and the pIC50 (second compound 0.00949 µM) was 8.23. It also gave a pIC50 (second compound 0.03 µM) of 8.29, a pIC50 (second compound 0.0949 µM) of 8.13 and a pIC50 (second compound 0.3 µM) of 8.45. For the same compound, the viability, T/C (second compound 0.000949 µM, first compound 0.000316 µM) was 84.1%, the viability, T/C (second compound 0.000949 µM, first compound 0.001 µM) was 66.4% and the viability, T/C (second compound 0.000949 µM, first compound 0.00316 µM) was 55.4%. For the same compound, the viability, T/C (second compound 0.000949 µM, first compound 0.01 µM) was 52.8%, the viability, T/C (second compound 0.000949 µM, first compound 0.0316 µM) was 28.5% and the viability, T/C (second compound 0.000949 µM, first compound 0.1 µM) was 14.9%. For the same compound, the viability, T/C (second compound 0.003 µM, first compound 0.000316 µM) was 78.1%, the viability, T/C (second compound 0.003 µM, first compound 0.001 µM) was 72.7% and the viability, T/C (second compound 0.003 µM, first compound 0.00316 µM) was 52.9%. For the same compound, the viability, T/C (second compound 0.003 µM, first compound 0.01 µM) was 44.4%, the viability, T/C (second compound 0.003 µM, first compound 0.0316 µM) was 27.1% and the viability, T/C (second compound 0.003 µM, first compound 0.1 µM) was 18.3%. It also gave a viability, T/C (second compound 0.00949 µM, first compound 0.000316 µM) of 72.7%, a viability, T/C (second compound 0.00949 µM, first compound 0.001 µM) of 62.8% and a viability, T/C (second compound 0.00949 µM, first compound 0.00316 µM) of 57.3%. The viability, T/C (second compound 0.00949 µM, first compound 0.01 µM) was 46.1%, the viability, T/C (second compound 0.00949 µM, first compound 0.0316 µM) was 28% and the viability, T/C (second compound 0.00949 µM, first compound 0.1 µM) was 15.5%. It also gave a viability, T/C (second compound 0.03 µM, first compound 0.000316 µM) of 70.4%, a viability, T/C (second compound 0.03 µM, first compound 0.001 µM) of 69.9% and a viability, T/C (second compound 0.03 µM, first compound 0.00316 µM) of 53.6%. It also gave a viability, T/C (second compound 0.03 µM, first compound 0.01 µM) of 42.7%, a viability, T/C (second compound 0.03 µM, first compound 0.0316 µM) of 25.3% and a viability, T/C (second compound 0.03 µM, first compound 0.1 µM) of 17.1%. The viability, T/C (second compound 0.0949 µM, first compound 0.000316 µM) was 73%, the viability, T/C (second compound 0.0949 µM, first compound 0.001 µM) was 64% and the viability, T/C (second compound 0.0949 µM, first compound 0.00316 µM) was 70.5%. It also gave a viability, T/C (second compound 0.0949 µM, first compound 0.01 µM) of 42.1%, a viability, T/C (second compound 0.0949 µM, first compound 0.0316 µM) of 25.6% and a viability, T/C (second compound 0.0949 µM, first compound 0.1 µM) of 15.8%. For the same compound, the viability, T/C (second compound 0.3 µM, first compound 0.000316 µM) was 71.3%, the viability, T/C (second compound 0.3 µM, first compound 0.001 µM) was 66.7% and the viability, T/C (second compound 0.3 µM, first compound 0.00316 µM) was 47.3%. For the same compound, the viability, T/C (second compound 0.3 µM, first compound 0.01 µM) was 40.3%, the viability, T/C (second compound 0.3 µM, first compound 0.0316 µM) was 23.7% and the viability, T/C (second compound 0.3 µM, first compound 0.1 µM) was 12.6%.

For Cc1nc(N2CCC3(CC2)COC(C)C3N)c(CO)nc1Sc1ccnc(N)c1Cl (centres undefined) + C=CC(=O)N1CCN(c2nc(OCC3CCCN3C)nc3c(F)c(-c4nc(N)cc(C)c4C(F)(F)F)c(Cl)cc23)C(C)C1, the pIC50 (second compound 0.00316 µM) was 6.68, the pIC50 (second compound 0.01 µM) was 6.41 and the pIC50 (second compound 0.0316 µM) was 6.70. The pIC50 (second compound 0.1 µM) was 6.51, the pIC50 (second compound 0.316 µM) was 6.56 and the pIC50 (second compound 1 µM) was 6.50. It also gave a viability, T/C (second compound 0.00316 µM, first compound 0.0316 µM) of 88.9%, a viability, T/C (second compound 0.00316 µM, first compound 0.1 µM) of 58.6% and a viability, T/C (second compound 0.00316 µM, first compound 0.316 µM) of 47.4%. For the same compound, the viability, T/C (second compound 0.00316 µM, first compound 1 µM) was 32.8%, the viability, T/C (second compound 0.00316 µM, first compound 3.16 µM) was 32.5% and the viability, T/C (second compound 0.00316 µM, first compound 10 µM) was 27.2%. For the same compound, the viability, T/C (second compound 0.01 µM, first compound 0.0316 µM) was 79.5%, the viability, T/C (second compound 0.01 µM, first compound 0.1 µM) was 66.8% and the viability, T/C (second compound 0.01 µM, first compound 0.316 µM) was 51.4%. The viability, T/C (second compound 0.01 µM, first compound 1 µM) was 37.4%, the viability, T/C (second compound 0.01 µM, first compound 3.16 µM) was 35.6% and the viability, T/C (second compound 0.01 µM, first compound 10 µM) was 22.6%. It also gave a viability, T/C (second compound 0.0316 µM, first compound 0.0316 µM) of 77.7%, a viability, T/C (second compound 0.0316 µM, first compound 0.1 µM) of 57.6% and a viability, T/C (second compound 0.0316 µM, first compound 0.316 µM) of 45.8%. It also gave a viability, T/C (second compound 0.0316 µM, first compound 1 µM) of 36.2%, a viability, T/C (second compound 0.0316 µM, first compound 3.16 µM) of 30.5% and a viability, T/C (second compound 0.0316 µM, first compound 10 µM) of 32.1%. For the same compound, the viability, T/C (second compound 0.1 µM, first compound 0.0316 µM) was 70%, the viability, T/C (second compound 0.1 µM, first compound 0.1 µM) was 61.4% and the viability, T/C (second compound 0.1 µM, first compound 0.316 µM) was 51.5%. For the same compound, the viability, T/C (second compound 0.1 µM, first compound 1 µM) was 35%, the viability, T/C (second compound 0.1 µM, first compound 3.16 µM) was 35.1% and the viability, T/C (second compound 0.1 µM, first compound 10 µM) was 27.1%. For the same compound, the viability, T/C (second compound 0.316 µM, first compound 0.0316 µM) was 85.7%, the viability, T/C (second compound 0.316 µM, first compound 0.1 µM) was 67% and the viability, T/C (second compound 0.316 µM, first compound 0.316 µM) was 48%. The viability, T/C (second compound 0.316 µM, first compound 1 µM) was 34.2%, the viability, T/C (second compound 0.316 µM, first compound 3.16 µM) was 35.5% and the viability, T/C (second compound 0.316 µM, first compound 10 µM) was 26.9%. For the same compound, the viability, T/C (second compound 1 µM, first compound 0.0316 µM) was 80.6%, the viability, T/C (second compound 1 µM, first compound 0.1 µM) was 64.3% and the viability, T/C (second compound 1 µM, first compound 0.316 µM) was 49.7%. It also gave a viability, T/C (second compound 1 µM, first compound 1 µM) of 40.2%, a viability, T/C (second compound 1 µM, first compound 3.16 µM) of 31.1% and a viability, T/C (second compound 1 µM, first compound 10 µM) of 29.7%.

Reference: PubChem BioAssay AID2060883 (Molecular Pharmacology Branch, DTP, NCI, 2025)
